Experimental data taken from patent publication US20170253607A1, “LONG-ACTING HIV PROTEASE INHIBITOR” (Shionogi & Co., Ltd., priority 2014, published 2017).

target: HIV-1 PR (Human immunodeficiency virus type 1 group M subtype B, UniProt P04585); experiment: HIV-protease inhibitory activity assay (FRET peptide substrate); assay type: biochemical; conditions: Test Example 1
Summary of the method: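 Inhibition of HIV-1 protease was measured as loss of fluorescence dequenching of a HiLyte Fluor 488/QXL 520 peptide at 2 μmol/L, pH 4.8, room temperature, 60 minute reaction. IC50 was derived by nonlinear four-parameter fitting.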

Structure (SMILES)	IC50
COc1ccc(S(=O)(=O)N(CC(C)C)CC(O)C(Cc2ccc(N(C)Cc3cc4c(cc3-c3sc5c(c3C(=O)O)CC(C)(C)CC5)OCC(=O)N4C)cc2)NC(=O)OC2COC3(C)OCCC23)cc1 (stereo not shown) [Compound I-768]	2.95 nM
COc1ccc(S(=O)(=O)N(CC(C)C)CC(O)C(Cc2ccc(N(C)CC3CC(C)(C)CCC3c3sc4c(c3C(=O)O)CC(C)(C)CC4)cc2)NC(=O)OC2COC3(C)OCCC23)cc1 (stereo not shown) [Compound I-769]	5.98 nM
COc1ccc(S(=O)(=O)N(CC(C)C)CC(O)C(Cc2ccc(N(C)CC3CC(C)(C)CCC3c3sc4c(c3C(=O)O)CC(C)(C)CC4)cc2)NC(=O)OC2COC3(C)OCCC23)cc1 (stereo not shown) [Compound I-770]	5.56 nM
COc1ccc(S(=O)(=O)N(CC(C)C)CC(O)C(Cc2ccc(N3Cc4nc5ccccc5cc4C3=O)cc2)NC(=O)OC2COC3(C)OCCC23)cc1 (stereo not shown) [Compound I-771]	2 nM
COc1ccc(S(=O)(=O)N(CC(C)C)CC(O)C(Cc2ccc(N(C)Cc3ccccc3-c3ccc(NC(=O)CC4CC(C)(C)CCC4=O)cc3)cc2)NC(=O)OC2COC3(C)OCCC23)cc1 (stereo not shown) [Compound I-772]	21 nM
COc1ccc(S(=O)(=O)N(CC(C)C)CC(O)C(Cc2ccc(NCc3nc4ccccc4cc3C(=O)Nc3sc4c(c3C(=O)O)CC(C)(C)CC4)cc2)NC(=O)OC2COC3(C)OCCC23)cc1 (stereo not shown) [Compound I-774]	6.26 nM
COc1ccc(S(=O)(=O)N(CC(C)C)CC(O)C(Cc2ccc(NCc3ccccc3-c3ccc(Nc4sc5c(c4C(=O)O)CC(C)(C)CC5)nc3)cc2)NC(=O)OC2COC3(C)OCCC23)cc1 (stereo not shown) [Compound I-775]	3.64 nM
COc1ccc(S(=O)(=O)N(CC(C)C)CC(O)C(Cc2ccc(N(C)Cc3ccccc3-c3ccc(Nc4sc5c(c4C(=O)O)CC(C)(C)CC5)nc3)cc2)NC(=O)OC2COC3(C)OCCC23)cc1 (stereo not shown) [Compound I-776]	6.4 nM
COc1ccc(S(=O)(=O)N(CC(C)C)CC(O)C(Cc2ccc(NCc3ccccc3NC(=O)Nc3sc4c(c3C(=O)O)CC(C)(C)CC4)cc2)NC(=O)OC2COC3(C)OCCC23)cc1 (stereo not shown) [Compound I-779]	2.74 nM
COc1ccc(S(=O)(=O)N(CC(C)C)CC(O)C(Cc2ccc(OCc3ccccc3-c3sc4c(c3C(=O)O)CC(C)(C)CC4)cc2)NC(=O)OC2COC3(COC(=O)NCc4ccc(F)cc4)OCCC23)cc1 (stereo not shown) [Compound I-784]	7.3 nM
CC(C)CN(CC(O)C(Cc1ccc(OCc2ccccc2-c2sc3c(c2C(=O)O)CC(C)(C)CC3)cc1)NC(=O)OC1COC2(C)OCCC12)S(=O)(=O)c1ccc2nc(NC3CCN(C4CCCC4)CC3)sc2c1 (stereo not shown) [Compound I-792]	25 nM
CC(C)CN(CC(O)C(Cc1ccc(OCc2ccccc2-c2sc3c(c2C(=O)O)CC(C)(C)CC3)cc1)NC(=O)OC1COC2(C)OCCC12)S(=O)(=O)c1ccc2nc(N(C)CCc3ccccc3)sc2c1 (stereo not shown) [Compound I-794]	38.4 nM
Cc1cc(OCCNc2nc3ccc(S(=O)(=O)N(CC(C)C)CC(O)C(Cc4ccccc4)NC(=O)OC4COC5(C)OCCC45)cc3s2)ccc1-c1sc2c(c1C(=O)O)CC(C)(C)CC2 (stereo not shown) [Compound I-797]	0.85 nM
COc1ccc(S(=O)(=O)N(CC(C)C)CC(O)C(Cc2ccc(OCCn3nc(C)c(-c4sc5c(c4C(=O)O)CC(C)(C)CC5)c3C)cc2)NC(=O)OC2COC3OCCC23)cc1 (stereo not shown) [Compound I-810]	1.03 nM
COc1ccc(S(=O)(=O)N(CC(C)C)CC(O)C(Cc2ccc(COc3ccc4c(c3C(=O)O)CC(C)(C)CC4)cc2)NC(=O)OC2COC3OCCC23)cc1 (stereo not shown) [Compound I-811]	0.81 nM
CC(C)CN(CC(O)C(Cc1ccc(OCc2ccc(-c3ccc(F)cc3F)cc2O)cc1)NC(=O)OC1COC2OCCC12)S(=O)(=O)c1ccc2ncsc2c1 (stereo not shown) [Compound I-813]	1.06 nM
CC(C)CN(CC(O)C(Cc1ccc(OCCOc2ccc(-c3ccc(F)cc3F)cc2C(=O)O)cc1)NC(=O)OC1COC2OCCC12)S(=O)(=O)c1ccc2ncsc2c1 (stereo not shown) [Compound I-814]	0.75 nM
COc1ccc(S(=O)(=O)N(CC(C)C)CC(O)C(Cc2ccc(OCc3ccccc3-c3sc4c(c3-c3noc(=O)[nH]3)CC(C)(C)CC4)cc2)NC(=O)OC2COC3OCCC23)cc1 (stereo not shown) [Compound I-815]	1.63 nM
CC(C)CN(CC(O)C(Cc1ccccc1)NC(=O)OC1COC2OCCC12)S(=O)(=O)c1ccc(NCc2sc3c(c2C(=O)O)CC(C)(C)CC3)cc1 (stereo not shown) [Compound I-816]	5.78 nM
COc1ccc(S(=O)(=O)N(CC(C)C)CC(O)C(Cc2ccc(CNC(=O)c3cc(-c4ccc(F)cc4F)ccc3O)cc2)NC(=O)OC2COC3OCCC23)cc1 (stereo not shown) [Compound I-817]	1.56 nM
CC(C)CN(CC(O)C(Cc1ccc(OCc2sc(Oc3ccccc3)nc2C(=O)O)cc1)NC(=O)OC1COC2OCCC12)S(=O)(=O)c1ccc2ncsc2c1 (stereo not shown) [Compound I-818]	0.64 nM
COc1ccc(S(=O)(=O)N(CC(C)C)CC(O)C(Cc2ccc(OCc3ccc4sc(-c5ccc(F)cc5)c(C(=O)O)c4c3)cc2)NC(=O)OC2COC3OCCC23)cc1 (stereo not shown) [Compound I-819]	0.72 nM
COc1ccc(S(=O)(=O)N(CC(C)C)CC(O)C(Cc2ccc(OCc3ccccc3-c3nc(C4=CCC(C)(C)CC4)sc3C(=O)O)cc2)NC(=O)OC2COC3OCCC23)cc1 (stereo not shown) [Compound I-820]	0.94 nM

Structure (SMILES)	IC50
COc1ccc(S(=O)(=O)N(CC(C)C)CC(O)C(Cc2ccc(OCc3ccccc3-c3ccc4c(O)c(-c5ccc(Oc6ccccc6)cc5)c(=O)[nH]c4c3)cc2)NC(=O)OC2COC3OCCC23)cc1 (stereo not shown) [Compound I-821]	2.24 nM
COc1ccc(S(=O)(=O)N(CC(C)C)CC(O)C(Cc2ccc(OCc3ccccc3-c3ccc4c(O)c(-c5ccc(Oc6ccccc6)cc5)c(=O)n(C)c4c3)cc2)NC(=O)OC2COC3OCCC23)cc1 (stereo not shown) [Compound I-822]	2.08 nM
COc1ccc(S(=O)(=O)N(CC(C)C)CC(O)C(Cc2ccc(OCc3ccccc3-c3sc(C)c(-c4ccccc4)c3C(=O)O)cc2)NC(=O)OC2COC3OCCC23)cc1 (stereo not shown) [Compound I-824]	1.01 nM
COc1ccc(S(=O)(=O)N(CC(C)C)CC(O)C(Cc2ccc(OCc3ncsc3-c3sc4c(c3C(=O)O)CC(C)(C)CC4)cc2)NC(=O)OC2COC3OCCC23)cc1 (stereo not shown) [Compound I-828]	0.96 nM
COc1ccc(S(=O)(=O)N(CC(C)C)CC(O)C(Cc2ccc(OCc3ccccc3-c3sc4c(c3C(=O)O)C3CC(C4)C3(C)C)cc2)NC(=O)OC2COC3OCCC23)cc1 (stereo not shown) [Compound I-829]	1.2 nM
CC(C)CN(CC(O)C(Cc1ccc(CCc2sc3c(c2C(=O)O)CC(C)(C)CC3)cc1)NC(=O)OC1COC2OCCC12)S(=O)(=O)c1ccc2ncsc2c1 (stereo not shown) [Compound I-831]	1.49 nM
COc1ccc(S(=O)(=O)N(CC(C)C)CC(O)C(Cc2ccc(OCc3ccccc3-c3sc4c(c3C(=O)O)CCC(=O)C4)cc2)NC(=O)OC2COC3OCCC23)cc1 (stereo not shown) [Compound I-833]	1.54 nM
COc1ccc(S(=O)(=O)N(CC(C)C)CC(O)C(Cc2ccc(OCc3ccccc3-c3oc4c(c3C(=O)O)CCCC4)cc2)NC(=O)OC2COC3OCCC23)cc1 (stereo not shown) [Compound I-834]	1.15 nM
COc1ccc(S(=O)(=O)N(CC(C)C)CC(O)C(Cc2ccc(OCc3ccccc3-n3nc(C(=O)O)c4c3CCC(C)(C)C4)cc2)NC(=O)OC2COC3OCCC23)cc1 (stereo not shown) [Compound I-837]	0.82 nM
COc1ccc(S(=O)(=O)N(CC2CCC(=O)N2)CC(O)C(Cc2ccc(OCc3ccccc3-c3sc4c(c3C(=O)O)CC(C)(C)CC4)cc2)NC(=O)OC2COC3OCCC23)cc1 (stereo not shown) [Compound I-838]	0.76 nM
CC(C)CN(CC(O)C(Cc1ccc(OCc2ccc(-c3ccc(F)cc3F)nc2C(=O)O)cc1)NC(=O)OC1COC2OCCC12)S(=O)(=O)c1ccc2ncsc2c1 (stereo not shown) [Compound I-840]	0.71 nM
CC(C)CN(CC(O)C(Cc1ccc(OCc2nc(Oc3ccccc3)sc2C(=O)O)cc1)NC(=O)OC1COC2OCCC12)S(=O)(=O)c1ccc2ncsc2c1 (stereo not shown) [Compound I-842]	0.69 nM
COc1ccc(S(=O)(=O)N(CC(C)C)CC(O)C(Cc2ccc(OCc3ccccc3-c3sc(Oc4ccccc4)nc3C(=O)O)cc2)NC(=O)OC2COC3OCCC23)cc1 (stereo not shown) [Compound I-843]	1.33 nM
COc1ccc(S(=O)(=O)N(CC(C)C)CC(O)C(Cc2ccc(OCc3ccccc3-c3sc(N4CCC(C)(C)CC4)nc3C(=O)O)cc2)NC(=O)OC2COC3OCCC23)cc1 (stereo not shown) [Compound I-844]	1.01 nM
COc1ccc(S(=O)(=O)N(CC(C)C)CC(O)C(Cc2ccc(OCc3ccccc3-c3sc(N4CCC(C)(C)CC4)nc3C(=O)O)cc2)NC(=O)OC2COC3OCCC23)cc1 (stereo not shown) [Compound I-845]	0.85 nM
COc1ccc(S(=O)(=O)N(CC(C)C)CC(O)C(Cc2ccc(OCc3ccccc3-c3sc(N4CCCC(C)(C)C4)nc3C(=O)O)cc2)NC(=O)OC2COC3OCCC23)cc1 (stereo not shown) [Compound I-846]	1.2 nM
COc1ccc(S(=O)(=O)N(CC(C)C)CC(O)C(Cc2ccc(OCc3ccccc3-c3sc(-c4ccccc4)cc3C(=O)O)cc2)NC(=O)OC2COC3OCCC23)cc1 (stereo not shown) [Compound I-848]	0.89 nM
COc1ccc(S(=O)(=O)N(CC(C)C)CC(O)C(Cc2ccc(OCc3ccccc3-c3sc(Cl)c(-c4ccccc4)c3C(=O)O)cc2)NC(=O)OC2COC3OCCC23)cc1 (stereo not shown) [Compound I-849]	0.78 nM
COc1ccc(S(=O)(=O)N(CC(C)C)CC(O)C(Cc2ccc(OCc3ccccc3-c3sc(Cl)c(CC(C)C)c3C(=O)O)cc2)NC(=O)OC2COC3OCCC23)cc1 (stereo not shown) [Compound I-850]	1.03 nM
COc1ccc(S(=O)(=O)N(CC(C)C)CC(O)C(Cc2ccc(NCc3ccccc3-c3sc4c(c3C(=O)O)CC(C)(C)CC4)cc2)NC(=O)OC2COC3OCC(OC)C23)cc1 (stereo not shown) [Compound I-853]	1.98 nM
CC(C)CN(CC(O)C(Cc1ccc(NCc2ccccc2C(=O)Nc2sc3c(c2C(=O)O)CC(C)(C)CC3)cc1)NC(=O)OC1COC2OCCC12)S(=O)(=O)c1ccc2c(c1)OCO2 (stereo not shown) [Compound I-854]	3.16 nM
CC(C)CN(CC(O)C(Cc1ccc(NCc2ccccc2C(=O)Nc2sc3c(c2C(=O)O)CC(C)(C)CC3)cc1)NC(=O)OC1COC2OCCC12)S(=O)(=O)c1ccc2ncsc2c1 (stereo not shown) [Compound I-855]	2.66 nM
COc1ccc(S(=O)(=O)N(CC(C)C)CC(O)C(Cc2ccc(N3CCC(C(=O)N(C)c4sc5c(c4C(=O)O)CC(C)(C)CC5)C3)cc2)NC(=O)OC2COC3OCCC23)cc1 (stereo not shown) [Compound I-863]	2.55 nM
